Like-named read-outs stand apart in the source and are kept apart here.
Key:
EphB3 kinase = target: T1, EphB3 kinase (Homo sapiens, UniProt P54753); assay: EphB3 kinase inhibition assay (HotSpot); assay type: biochemical; conditions: EphB3 kinase, 10 µM compound, 10 µM ATP; read-out: Average % Enzyme Inhibition at 10 µM (Relative to DMSO Control)
T1 construct: purchased Reaction Biology Co. (Kinase HotSpot service)
T1 sequence (P54753 34-998): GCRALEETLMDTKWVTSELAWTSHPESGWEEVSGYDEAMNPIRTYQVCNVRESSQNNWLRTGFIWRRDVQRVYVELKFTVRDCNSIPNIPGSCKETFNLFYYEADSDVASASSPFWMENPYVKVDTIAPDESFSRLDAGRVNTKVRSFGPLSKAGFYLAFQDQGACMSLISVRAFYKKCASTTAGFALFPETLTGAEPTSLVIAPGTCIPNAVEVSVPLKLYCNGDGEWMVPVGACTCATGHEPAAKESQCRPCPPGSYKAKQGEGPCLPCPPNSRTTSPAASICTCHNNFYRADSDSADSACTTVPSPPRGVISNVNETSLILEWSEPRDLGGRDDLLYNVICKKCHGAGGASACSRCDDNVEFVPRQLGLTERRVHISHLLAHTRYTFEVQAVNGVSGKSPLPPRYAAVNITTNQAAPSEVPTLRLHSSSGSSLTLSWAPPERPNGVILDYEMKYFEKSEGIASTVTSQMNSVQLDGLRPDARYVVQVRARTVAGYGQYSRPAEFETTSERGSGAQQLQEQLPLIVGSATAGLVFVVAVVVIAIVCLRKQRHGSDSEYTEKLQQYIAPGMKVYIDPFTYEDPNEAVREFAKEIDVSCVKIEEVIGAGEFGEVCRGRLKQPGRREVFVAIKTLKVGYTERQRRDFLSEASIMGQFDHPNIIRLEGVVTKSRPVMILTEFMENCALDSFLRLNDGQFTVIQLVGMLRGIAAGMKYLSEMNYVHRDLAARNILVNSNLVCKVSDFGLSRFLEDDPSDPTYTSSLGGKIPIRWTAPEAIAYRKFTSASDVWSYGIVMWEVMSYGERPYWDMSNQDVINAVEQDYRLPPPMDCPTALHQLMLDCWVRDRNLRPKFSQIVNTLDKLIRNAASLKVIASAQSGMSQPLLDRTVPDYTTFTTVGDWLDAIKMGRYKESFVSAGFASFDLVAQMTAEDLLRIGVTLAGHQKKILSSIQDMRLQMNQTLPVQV
Protocol: The synthesized compounds were subjected to in vitro screening over EphB3 kinase. A single dose of 10 µM concentration of each target compound was used in EphB3 kinase inhibition assay, at 10 µM ATP, applying HotSpot^SM technology.
The HotSpot assay platform contains specific kinase/substrate pairs along with required cofactors. Base reaction buffer: 20 mM Hepes (pH 7.5), 10 mM MgCl2, 1 mM EGTA, 0.02% Brij35, 0.02 mg/mL BSA, 0.1 mM Na3VO4, 2 mM DTT, 1% DMSO. The tested compounds were dissolved in 100% DMSO to specific concentration. The serial dilution was conducted by Integra Viaflo Assist in DMSO (Sigma-Aldrich, Burlington, MA, USA). The reaction mixture containing the examined compound and 33P-ATP was incubated at room temperature for 2 h, and radioactivity was detected by filter-binding method. Kinase activity data were expressed as the percent remaining kinase activity in test samples compared to vehicle (dimethyl sulfoxide) reactions. IC50 values and curve fits were obtained using Prism (GraphPad Software, San Diego, CA, USA).

EGFR kinase = target: T2, EGFR kinase (Homo sapiens, UniProt P00533); assay: EGFR kinase inhibition assay (HotSpot); assay type: biochemical; conditions: for inhibition at 10 µM / Average % Enzyme Inhibition (Relative to DMSO Controls) at 10 µM: 10 µM compound; for inhibition at 10 µM: 10 µM ATP as printed, read-out: Average % Enzyme Inhibition (Relative to DMSO Controls) at 10 µM; for Average % Enzyme Inhibition (Relative to DMSO Controls) at 10 µM: 10 M [sic] ATP
T2 construct: purchased Reaction Biology Co. (Kinase HotSpot service)
T2 sequence (P00533 25-1210): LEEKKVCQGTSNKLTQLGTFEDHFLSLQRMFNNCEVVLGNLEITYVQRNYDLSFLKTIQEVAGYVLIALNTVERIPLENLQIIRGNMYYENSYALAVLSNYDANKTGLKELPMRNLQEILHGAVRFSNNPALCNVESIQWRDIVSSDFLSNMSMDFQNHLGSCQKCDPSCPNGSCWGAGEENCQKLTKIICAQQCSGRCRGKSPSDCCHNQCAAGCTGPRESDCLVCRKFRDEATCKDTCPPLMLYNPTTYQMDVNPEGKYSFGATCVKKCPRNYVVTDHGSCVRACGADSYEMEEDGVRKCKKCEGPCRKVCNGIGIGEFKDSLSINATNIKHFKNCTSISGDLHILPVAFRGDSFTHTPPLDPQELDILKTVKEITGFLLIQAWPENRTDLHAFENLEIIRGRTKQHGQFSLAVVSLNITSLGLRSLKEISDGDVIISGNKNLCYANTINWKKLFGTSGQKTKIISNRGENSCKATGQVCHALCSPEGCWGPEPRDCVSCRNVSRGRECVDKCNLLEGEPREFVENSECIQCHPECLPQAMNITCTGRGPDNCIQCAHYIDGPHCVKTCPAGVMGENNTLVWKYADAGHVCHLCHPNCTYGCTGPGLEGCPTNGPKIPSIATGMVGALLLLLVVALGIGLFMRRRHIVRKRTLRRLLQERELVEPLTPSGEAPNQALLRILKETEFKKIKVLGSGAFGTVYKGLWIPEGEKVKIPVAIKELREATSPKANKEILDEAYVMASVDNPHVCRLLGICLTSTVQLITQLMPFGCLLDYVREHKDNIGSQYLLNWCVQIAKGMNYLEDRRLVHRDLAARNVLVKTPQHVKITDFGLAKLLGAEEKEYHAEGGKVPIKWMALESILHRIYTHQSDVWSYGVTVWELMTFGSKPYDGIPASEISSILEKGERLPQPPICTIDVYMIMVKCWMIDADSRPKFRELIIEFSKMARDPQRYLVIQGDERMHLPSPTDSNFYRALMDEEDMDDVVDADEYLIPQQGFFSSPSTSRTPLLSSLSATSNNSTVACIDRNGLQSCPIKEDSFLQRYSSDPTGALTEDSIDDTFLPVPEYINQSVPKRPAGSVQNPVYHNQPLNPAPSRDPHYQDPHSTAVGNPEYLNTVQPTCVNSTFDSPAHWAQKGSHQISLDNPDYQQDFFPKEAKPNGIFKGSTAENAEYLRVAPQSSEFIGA

[1] = EGFR kinase, dose dependent assay, read-out: IC50
[2] = EGFR, read-out: EC50 of the curve fit printed in Figure 6 (IC50 per legend)

Row | SMILES | inhibition at 10 µM (EphB3 kinase) [%] | inhibition at 10 µM (EGFR kinase; EGFR kinase) [%] | Average % Enzyme Inhibition (Relative to DMSO Controls) at 10 µM (EGFR kinase; EGFR kinase) [%] | IC50 (EGFR kinase; [1]) [nM] | IC50 (EGFR kinase; [2]) [nM] | melting point [°C]
1 | NS(=O)(=O)c1ccc(Nc2ncnc3ccc(-c4cccnc4)cc23)cc1 [Compound 4a, 4-((6-(Pyridin-3-yl)quinazolin-4-yl)amino)benzenesulfonamide] | 25.81 ± 0.24 | 0.56 ± 4.32 | – | – | – | 315.1 to 316.2
2 | NS(=O)(=O)c1cccc(Nc2ncnc3cc(-c4cccc(CN5CCOCC5)c4)ccc23)c1 [Compound 4e, 3-((7-(3-(Morpholinomethyl)phenyl)quinazolin-4-yl)amino)benzenesulfonamide] | -21.35 ± 0.09 | > 50 | 63.28 ± 0.21 | 1060 | 1060 | 267.5 to 269
3 | NS(=O)(=O)c1cccc(Nc2ncnc3ccc(-c4cccnc4)cc23)c1 [Compound 4f, 3-((6-(Pyridin-3-yl)quinazolin-4-yl)amino)benzenesulfonamide] | 23.5 ± 5.36 | 4.57 ± 2.16 | – | – | – | 320 to 321.5
4 | NS(=O)(=O)c1ccc(Nc2ncnc3ccc(-c4ccc(C=O)o4)cc23)cc1 [Compound 4b, 4-((6-(5-Formylfuran-2-yl)quinazolin-4-yl)amino)benzenesulfonamide] | 26.7 ± 0.45 | 25.2 ± 1.25 | – | – | – | –

The remaining lines, values ahead:

Row | inhibition at 10 µM (EphB3 kinase) [%] | inhibition at 10 µM (EGFR kinase; EGFR kinase) [%] | Average % Enzyme Inhibition (Relative to DMSO Controls) at 10 µM (EGFR kinase; EGFR kinase) [%] | IC50 (EGFR kinase; [1]) [nM] | IC50 (EGFR kinase; [2]) [nM] | melting point [°C] | SMILES
5 | 18.9 ± 1.09 | > 50 | 65.76 ± 0.98 | 2760 | 2760 | 228.1 to 229.8 | NS(=O)(=O)c1ccc(Nc2ncnc3cc(-c4ccc(CN5CCOCC5)cc4)ccc23)cc1 [Compound 4d, 4-((7-(4-(Morpholinomethyl)phenyl)quinazolin-4-yl)amino)benzenesulfonamide]
6 | 26.97 ± 0.24 | -13.2 ± 4.31 | – | – | – | 322.2 to 324.5 | NS(=O)(=O)c1ccc(Nc2ncnc3ccc(Br)cc23)cc1 [Compound 3a, 4-((6-Bromoquinazolin-4-yl)amino)benzenesulfonamide]

From paper PMC8708751, “Hit Identification of a Novel Quinazoline Sulfonamide as a Promising EphB3 Inhibitor: Design, Virtual Combinatorial Library, Synthesis, Biological Evaluation, and Docking Simulation Studies” (Pharmaceuticals, 2021)
